Reference: patent US8648099B2 (Hoffmann-La Roche Inc., priority 2011, dated 2014)
Where two headings read alike, the source gives them in different places.

Assays:
human CB1 receptor = target: T1, human CB1 receptor (Homo sapiens, UniProt P21554); assay: CB1 receptor affinity ([3H]-CP-55,940 displacement, HEK cell membranes); assay type: binding; details: read-out: CB1 receptor affinity [% inhibition @ 10 μM]
T1 construct: expressed in transfected cells; host or cells: human embryonic kidney (HEK) cells, Semliki Forest Virus system, membrane preparations
Procedure: (§1) The affinity of the compounds of the invention for cannabinoid receptors was determined using membrane preparations of human embryonic kidney (HEK) cells in which the human CB1 receptor is transiently transfected using a Semliki Forest Virus system in conjunction with [3H]-CP-55,940 as radioligand. After incubation of freshly prepared cell membrane preparation with the [^3H]-ligand, with or without addition of compounds of the invention, separation of bound and free ligand was performed by filtration over glass fiber filters. Radioactivity on the filter was measured by scintillation counting.
(§2) The ability of the compounds to displace the radioligand [^3H]-CP-55,940 was measured at a concentration of 10 μM and values provided as [% inhibition @ 10 μM] both for the CB1 and CB2 receptor assay, The lower % inhibition is, the lower the likelihood of side effects based on CB1 or CB2 receptor inhibition is.

ABCA1 protein = assay: Detection of upregulation of ABCA1 protein in cells (ApoA-I binding, high content imaging); assay type: cell-based; details: THP-1 macrophage cells; for % increase of ABCA1 at 3 μM: compound at 3 μM, 24 hrs; for EC50: 24 hrs compound incubation, read-out: EC50 [μM] ABCA1 protein increasing efficacy
Procedure: The ability of compounds of the invention to increase the level of ABCA1 protein is determined in replicate cultures of THP-1 macrophage cells in 96-well microplates. Cells are plated at an initial density of 100,000 cells/well in 100 μl medium and differentiated to adherent macrophages with the addition of PMA (100 nM) for 68 hrs in 10% fetal bovine serum, 3 μl/L of b-mercaptoethanol, RPMI-1640 medium. Then, cells are incubated with RPMI-1640 medium containing 1% FCS, 25 μg/ml acetylated LDL, for 24 hours at 37° C. Following incubation with acetylated LDL, cells are washed twice with 50 μl PBS and incubated with 100 μl of RPMI-1640 medium containing the compound of interest solubilized in DMSO for an additional 24 hrs. The final DMSO concentration in presence of cells is maintained at 0.5%. ApoA-I binding assay using High Content Image Analysis is initiated by replacing with fresh medium, RPMI without Phenol Red, 0.2% BSA containing AlexaFluor®647 labeled ApoA-I for 2 h/37° C./5% CO2. Then, cells are fixed with 4% Formaldehyde in PBS (15 min, RT). Following Nuclei are stained with Hoechst solution (3 μM PBS) and Cytoplasm with Cell Mask Blue (2 μg/ml PBS), 15 min, RT. Finally the stained cells are fixed with a second round of formaldehyde treatment. Fixed stained cells are washed and kept in PBS at 4° C. and can be read immediately until one month after preparation.
The Alexa Fluor 647-labeled Apolipoprotein A-I (20 nM) was prepared as follows: Human recombinant Apolipoprotein A-I (ApoA-I) was exchanged to a buffer of 0.02 M NaHCO3 at pH 8.2 on an NAP desalting column (GE Healthcare) and brought to a concentration to 40 μM (1.13 mg/ml) by adjustment with the same buffer. The ApoA-I was fluorescently labeled by incubation with Alexa Fluor carboxylic acid succimidyl ester (Alexa Fluor 647, Invitrogen A-20006) at a 2:1 molar ratio (Alexa to ApoA-I) for 1 h under shaking at RT. The remaining unconjugated label was removed by buffer exchange to 0.02M NaHCO3 at pH 8.2.
Imaging and data collection were performed on an OPERA confocal microplate imaging reader using a 20× water immersion objective and UV360 or 405 laser to identify the cell nuclei and a 635 laser to identify the fluorescent ApoA-I. Eight fields of view are captured per well. Image capture and analysis was performed with the Acapella software. Background fluorescence detected in control wells without ApoA-I was subtracted.
Using XLfit3 program (ID Business Solutions Ltd. UK), the model 205 for Dose Response One Site is used to calculate the EC50 values. […] More particularly, the compounds of the present invention have EC50 values in a range of 0.1 μM to 3 μm.

human CB2 receptor = target: T2, human CB2 receptor (Homo sapiens, UniProt P34972); assay: CB2 receptor affinity ([3H]-CP-55,940 displacement, HEK cell membranes); assay type: binding; details: displacement of [3H]-CP-55,940 at 10 μM
T2 construct: expressed in transfected cells; host or cells: human embryonic kidney (HEK) cells, Semliki Forest Virus system, membrane preparations
Procedure: as §1, with “cannabinoid CB2” for “cannabinoid”, “CB2” for “CB1”, “[^3H]-CP-55,940” for “[3H]-CP-55,940”
as §2

[1] = displacement of [3H]-CP-55,940 at 10 μM

T2 sequence (P34972 whole entry): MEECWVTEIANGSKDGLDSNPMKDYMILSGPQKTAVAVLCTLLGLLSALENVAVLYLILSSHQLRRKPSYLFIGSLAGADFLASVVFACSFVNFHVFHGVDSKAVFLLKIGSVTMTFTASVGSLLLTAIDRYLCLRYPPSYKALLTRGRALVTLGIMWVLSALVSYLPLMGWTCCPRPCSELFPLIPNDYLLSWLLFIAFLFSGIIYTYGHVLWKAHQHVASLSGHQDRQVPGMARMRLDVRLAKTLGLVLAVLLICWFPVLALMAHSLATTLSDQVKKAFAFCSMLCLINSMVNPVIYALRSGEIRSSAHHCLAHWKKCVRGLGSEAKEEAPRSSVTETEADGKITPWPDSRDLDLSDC
T1 sequence (P21554 whole entry): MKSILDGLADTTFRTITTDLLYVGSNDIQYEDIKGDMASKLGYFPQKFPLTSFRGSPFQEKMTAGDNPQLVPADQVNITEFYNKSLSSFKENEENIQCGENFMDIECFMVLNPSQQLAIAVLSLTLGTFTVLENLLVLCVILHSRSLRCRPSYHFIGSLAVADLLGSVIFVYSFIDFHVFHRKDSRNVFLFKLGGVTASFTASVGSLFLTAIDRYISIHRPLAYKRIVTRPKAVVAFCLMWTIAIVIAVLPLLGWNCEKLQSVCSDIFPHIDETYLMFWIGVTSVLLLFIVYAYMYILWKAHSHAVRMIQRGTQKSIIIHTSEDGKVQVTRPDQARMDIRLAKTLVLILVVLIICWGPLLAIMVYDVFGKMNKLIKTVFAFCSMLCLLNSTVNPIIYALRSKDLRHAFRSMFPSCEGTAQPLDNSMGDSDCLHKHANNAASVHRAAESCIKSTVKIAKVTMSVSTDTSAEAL

## O=C(NNCC(F)(F)F)c1cnc(OCC(F)(F)F)c(-c2ccc(Cl)cc2)c1 [Example 1, 5-(4-chlorophenyl)-6-(2,2,2-trifluoroethoxy)-N′-(2,2,2-trifluoroethyl)-3-pyridinecarboxylic acid hydrazide]
Human CB1 receptor; [1]
  inhibition at 10 µM: 42%
ABCA1 protein
  % increase of ABCA1 at 3 μM: >45%@ 3 μM
Human CB2 receptor
  inhibition at 10 µM: 10%

## O=C(NN1CCOCC1)c1cnc(OCC(F)(F)F)c(-c2ccc(Cl)cc2)c1 [Example 2, 5-(4-chlorophenyl)-N-morpholino-6-(2,2,2-trifluoroethoxy)-3-pyridinecarboxamide]
Human CB1 receptor; [1]
  inhibition at 10 µM: 43%
ABCA1 protein
  % increase of ABCA1 at 3 μM: >45%@ 3 μM
Human CB2 receptor
  inhibition at 10 µM: 8%

## O=C(NN1CCS(=O)(=O)CC1)c1cnc(OCC(F)(F)F)c(-c2ccc(Cl)cc2)c1 [Example 3, 5-(4-chloro-phenyl)-N-(1,1-dioxido-4-thiomorpholinyl)-6-(2,2,2-trifluoro-ethoxy)-3-pyridinecarboxamide]
Human CB1 receptor; [1]
  inhibition at 10 µM: 39%
ABCA1 protein
  % increase of ABCA1 at 3 μM: >45%@ 3 μM
Human CB2 receptor
  inhibition at 10 µM: 7%

## CC(C)(C)OC(=O)N1CCCN1C(=O)c1cnc(OCC(F)(F)F)c(-c2ccc(Cl)cc2)c1 [Example 4, t-butyl 2-[(5-(4-chlorophenyl)-6-(2,2,2-trifluoroethoxy)-3-pyridinyl)carbonyl]-pyrazolidine-1-carboxylate]
Human CB1 receptor; [1]
  inhibition at 10 µM: 40%
ABCA1 protein
  % increase of ABCA1 at 3 μM: >45%@ 3 μM
Human CB2 receptor
  inhibition at 10 µM: 24%

## CN(NC(=O)c1cnc(OCC(F)(F)F)c(-c2ccc(Cl)cc2)c1)c1ccccc1 [Example 5, 5-(4-chloro-phenyl)-6-(2,2,2-trifluoro-ethoxy)-3-pyridinecarboxylic acid N′-methyl-N′-phenyl-hydrazide]
Human CB1 receptor; [1]
  inhibition at 10 µM: 45%
ABCA1 protein
  % increase of ABCA1 at 3 μM: >45%@ 3 μM
Human CB2 receptor
  inhibition at 10 µM: 31%

## O=C(NN1CCC(O)CC1)c1cnc(OCC(F)(F)F)c(-c2ccc(Cl)cc2)c1 [Example 6, 5-(4-chlorophenyl)-N-(4-hydroxypiperidin-1-yl)-6-(2,2,2-trifluoroethoxy)-3-pyridinecarboxamide]
Human CB1 receptor
  inhibition at 10 µM: 11%
ABCA1 protein
  EC50: 1.11 µM
Human CB2 receptor
  inhibition at 10 µM: -9%

## O=C(NN1CC(CN2CCOCC2)OC1=O)c1cnc(OCC(F)(F)F)c(-c2ccc(Cl)cc2)c1 (stereo not drawn) [Example 7, 5-(4-chlorophenyl)-N-(5-(morpholinomethyl)-2-oxooxazolidin-3-yl)-6-(2,2,2-trifluoroethoxy)-3-pyridinecarboxamide]
Human CB1 receptor; [1]
  inhibition at 10 µM: 36%
ABCA1 protein
  % increase of ABCA1 at 3 μM: >45%@ 3 μM
Human CB2 receptor
  inhibition at 10 µM: -4%

## CN(NC(=O)c1cnc(OCC(F)(F)F)c(-c2ccc(Cl)cc2)c1)c1ccc(Cl)nn1 [Example 8, 5-(4-chlorophenyl)-N′-(6-chloropyridazin-3-yl)-N′-methyl-6-(2,2,2-trifluoroethoxy)-3-pyridinecarboxylic acid hydrazide]
Human CB1 receptor; [1]
  inhibition at 10 µM: 38%
ABCA1 protein
  % increase of ABCA1 at 3 μM: >45%@ 3 μM
Human CB2 receptor
  inhibition at 10 µM: 18%

## NNC(=O)c1cnc(OCC(F)(F)F)c(-c2ccc(Cl)c(F)c2)c1 [Example 9, 5-(4-chloro-3-fluorophenyl)-6-(2,2,2-trifluoroethoxy)-3-pyridinecarboxylic acid hydrazide]
Human CB1 receptor; [1]
  inhibition at 10 µM: 11%
ABCA1 protein
  % increase of ABCA1 at 3 μM: >45%@ 3 μM
Human CB2 receptor
  inhibition at 10 µM: -2%

## O=C(NN1CCC(O)CC1)c1cnc(OCC2CC2)c(-c2ccc(Cl)cc2)c1 [Example 10, 5-(4-chlorophenyl)-6-(cyclopropylmethoxy)-N-(4-hydroxypiperidin-1-yl)-3-pyridinecarboxamide]
Human CB1 receptor; [1]
  inhibition at 10 µM: 34%
ABCA1 protein
  EC50: 1.03 µM
Human CB2 receptor
  inhibition at 10 µM: 2%

## O=C(NN1CCC(O)CC1)c1cnc(OC2CCC2)c(-c2ccc(Cl)cc2)c1 [Example 11, 5-(4-chlorophenyl)-6-cyclobutoxy-N-(4-hydroxypiperidin-1-yl)-3-pyridinecarboxamide]
Human CB1 receptor; [1]
  inhibition at 10 µM: 14%
ABCA1 protein
  EC50: 0.18 µM
Human CB2 receptor
  inhibition at 10 µM: -8%

## O=C(NN1CCC(O)CC1)c1cnc(OCC(F)(F)F)c(C2CCCCC2)c1 [Example 12, 5-cyclohexyl-N-(4-hydroxypiperidin-1-yl)-6-(2,2,2-trifluoroethoxy)-3-pyridinecarboxamide]
Human CB1 receptor; [1]
  inhibition at 10 µM: 8%
ABCA1 protein
  EC50: 1.48 µM
Human CB2 receptor
  inhibition at 10 µM: 6%

## CS(=O)(=O)N1CCN(NC(=O)c2cnc(OCC(F)(F)F)c(-c3ccc(Cl)cc3)c2)CC1 [Example 13, 5-(4-chlorophenyl)-N-(4-(methylsulfonyl)piperazin-1-yl)-6-(2,2,2-trifluoroethoxy)-3-pyridinecarboxamide]
Human CB1 receptor; [1]
  inhibition at 10 µM: 23%
ABCA1 protein
  EC50: 0.33 µM
Human CB2 receptor
  inhibition at 10 µM: 1%

## O=C(NN1CCOCC1)c1cnc(OCC(F)(F)F)c(C2CCCC2)c1 [Example 14, 5-cyclopentyl-N-morpholino-6-(2,2,2-trifluoroethoxy)-3-pyridinecarboxamide]
Human CB1 receptor; [1]
  inhibition at 10 µM: 19%
ABCA1 protein
  EC50: 1.08 µM
Human CB2 receptor
  inhibition at 10 µM: 9%

## O=C(NN1CCCC1=O)c1cnc(OCC(F)(F)F)c(C2CCCC2)c1 [Example 15, 5-cyclopentyl-N-(2-oxopyrrolidin-1-yl)-6-(2,2,2-trifluoroethoxy)-3-pyridinecarboxamide]
Human CB1 receptor; [1]
  inhibition at 10 µM: 13%
ABCA1 protein
  % increase of ABCA1 at 3 μM: >45%@ 3 μM
Human CB2 receptor
  inhibition at 10 µM: 12%

## CN(NC(=O)c1cnc(OCC(F)(F)F)c(C2CCCC2)c1)c1ccc(Cl)nn1 [Example 16, N′-(6-chloropyridazin-3-yl)-5-cyclopentyl-N′-methyl-6-(2,2,2-trifluoroethoxy)-3-pyridinecarboxylic acid hydrazide]
Human CB1 receptor; [1]
  inhibition at 10 µM: 21%
ABCA1 protein
  EC50: 1.17 µM
Human CB2 receptor
  inhibition at 10 µM: -5%

## COC[C@@H]1CCCN1NC(=O)c1cnc(OCC(F)(F)F)c(C2CCCC2)c1 [Example 17, (S)-5-cyclopentyl-N-(2-(methoxymethyl)pyrrolidin-1-yl)-6-(2,2,2-trifluoroethoxy)-3-pyridinecarboxamide]
Human CB1 receptor; [1]
  inhibition at 10 µM: 33%
ABCA1 protein
  EC50: 0.12 µM
Human CB2 receptor
  inhibition at 10 µM: 3%

## CN(NC(=O)c1cnc(OCC(F)(F)F)c(C2CCCC2)c1)c1ccccc1 [Example 18, 5-cyclopentyl-N′-methyl-N′-phenyl-6-(2,2,2-trifluoroethoxy)-3-pyridinecarboxylic acid hydrazide]
Human CB1 receptor; [1]
  inhibition at 10 µM: 41%
ABCA1 protein
  % increase of ABCA1 at 3 μM: >45%@ 3 μM
Human CB2 receptor
  inhibition at 10 µM: 18%

## O=C(NN1CCOCC1)c1cnc(OCC(F)(F)F)c(C2CCCCC2)c1 [Example 19, 5-cyclohexyl-N-morpholino-6-(2,2,2-trifluoroethoxy)-3-pyridinecarboxamide]
Human CB1 receptor; [1]
  inhibition at 10 µM: 29%
ABCA1 protein
  EC50: 5.39 µM
Human CB2 receptor
  inhibition at 10 µM: -23%

## CN(NC(=O)c1cnc(OCC(F)(F)F)c(C2CCCCC2)c1)c1ccccc1 [Example 20, 5-cyclohexyl-N′-methyl-N′-phenyl-6-(2,2,2-trifluoroethoxy)-3-pyridinecarboxylic acid hydrazide]
Human CB1 receptor; [1]
  inhibition at 10 µM: 39%
ABCA1 protein
  % increase of ABCA1 at 3 μM: >45%@ 3 μM
Human CB2 receptor
  inhibition at 10 µM: 9%
